Test results reported in EP4806910A1, “TRI-AGONIST COMPOUND” (priority 2023, dated 2025).

Assays:
Assay type in all cases: cell-based
GLP-1R = molecular target: T1, GLP-1R (Homo sapiens, UniProt P43220); experiment: GLP-1 activity test (cAMP, chemiluminescence)
T1 construct: expressed in transfected cells; host or cells: CHO-K1
Method: (§1) Upon stimulation by a specific agonist, GLP-1R activates the intracellular adenylate cyclase signaling pathway, resulting in an increase in cAMP levels and ultimately leading to insulin production and secretion. A cell line stably transfected with GLP-1R was stimulated with test compounds, thereby rapidly increasing intracellular cAMP levels. The relative luminescence units (RLU) of cells stimulated at various concentrations were measured by a chemiluminescence method, and the EC50 value of the agonist was calculated accordingly. This activity test method is currently a commonly used method for evaluating GLP-1 receptor agonist activity both domestically and internationally. A CHO-K1 cell line stably expressing GLP-1R was used. The stable cells were stimulated with agonists at different concentrations, and the relative luminescence units after stimulation at each concentration were measured to calculate the EC50 value of the agonist.

GIPR = molecular target: T2, GIPR (Homo sapiens, UniProt P48546); experiment: GIP activity test (cAMP, chemiluminescence)
T2 construct: expressed in transfected cells; host or cells: CHO-K1
T2 sequence (P48546 22-466): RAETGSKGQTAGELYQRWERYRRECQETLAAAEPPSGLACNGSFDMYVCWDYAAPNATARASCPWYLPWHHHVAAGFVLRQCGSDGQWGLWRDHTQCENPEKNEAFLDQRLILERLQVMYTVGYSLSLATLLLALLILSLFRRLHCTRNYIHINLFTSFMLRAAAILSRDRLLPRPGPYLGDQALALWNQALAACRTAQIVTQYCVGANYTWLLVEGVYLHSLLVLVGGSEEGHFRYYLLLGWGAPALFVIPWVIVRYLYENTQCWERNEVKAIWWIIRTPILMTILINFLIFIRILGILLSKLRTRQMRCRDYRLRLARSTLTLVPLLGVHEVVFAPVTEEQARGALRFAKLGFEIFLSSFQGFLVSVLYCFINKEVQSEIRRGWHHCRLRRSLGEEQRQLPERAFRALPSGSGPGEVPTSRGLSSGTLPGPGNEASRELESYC
Method: as §1, with “agonist, GIPR” for “agonist, GLP-1R”, “with GIPR” for “with GLP-1R”, “activity assay” for “activity test”, “evaluating GIP” for “evaluating GLP-1”, “expressing GIPR” for “expressing GLP-1R”

GCG-R = molecular target: T3, GCG-R (Homo sapiens, UniProt P47871); experiment: GCG activity test (cAMP, chemiluminescence)
T3 construct: expressed in transfected cells; host or cells: CHO-K1
T3 sequence (P47871 26-477, species assumed): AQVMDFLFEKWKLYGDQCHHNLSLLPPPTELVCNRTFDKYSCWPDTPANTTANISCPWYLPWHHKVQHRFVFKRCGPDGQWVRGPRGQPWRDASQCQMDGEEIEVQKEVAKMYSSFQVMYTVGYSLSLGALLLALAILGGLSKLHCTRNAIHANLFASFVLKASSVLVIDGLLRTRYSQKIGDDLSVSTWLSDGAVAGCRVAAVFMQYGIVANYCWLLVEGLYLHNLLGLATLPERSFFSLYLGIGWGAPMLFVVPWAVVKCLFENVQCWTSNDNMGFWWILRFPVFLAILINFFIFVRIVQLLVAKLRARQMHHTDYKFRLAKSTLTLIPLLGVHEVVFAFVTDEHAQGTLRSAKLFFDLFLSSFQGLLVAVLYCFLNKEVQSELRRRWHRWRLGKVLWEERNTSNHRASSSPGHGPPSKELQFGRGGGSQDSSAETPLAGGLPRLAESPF
Method: Upon stimulation by a specific agonist, GCG-R activates the intracellular adenylate cyclase signaling pathway, resulting in an increase in cAMP levels and ultimately leading to insulin production and secretion. A cell line stably transfected with GCG-R was stimulated with test compounds, thereby rapidly increasing intracellular cAMP levels. The relative luminescence units (RLU) of cells stimulated at various concentrations were measured by a chemiluminescence method, and the EC50 value of the agonist was calculated accordingly. This activity assay method is currently a commonly used method for evaluating GCG receptor agonist activity both domestically and internationally.
A CHO-K1 cell line stably expressing GCG-R was used. The stable cells were stimulated with agonists at different concentrations, and the relative luminescence units after stimulation at each concentration were measured to calculate the EC50 value of the agonist.

T1 sequence (P43220 24-463, species assumed): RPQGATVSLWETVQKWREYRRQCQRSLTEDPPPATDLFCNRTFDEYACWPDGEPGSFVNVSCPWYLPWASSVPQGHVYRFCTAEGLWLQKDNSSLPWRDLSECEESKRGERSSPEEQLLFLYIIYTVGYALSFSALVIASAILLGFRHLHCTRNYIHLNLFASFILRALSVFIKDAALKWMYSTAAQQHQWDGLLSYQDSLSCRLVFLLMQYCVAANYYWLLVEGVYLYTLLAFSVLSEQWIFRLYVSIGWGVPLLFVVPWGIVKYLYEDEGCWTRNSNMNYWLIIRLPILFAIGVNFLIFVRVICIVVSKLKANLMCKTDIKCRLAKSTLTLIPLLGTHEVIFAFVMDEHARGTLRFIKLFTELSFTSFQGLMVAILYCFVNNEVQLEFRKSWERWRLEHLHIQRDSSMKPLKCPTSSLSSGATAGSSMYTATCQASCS

| SMILES | EC50 (GLP-1R) [nM] | EC50 (GIPR) [nM] | EC50 (GCG-R) [nM] |
| --- | --- | --- | --- |
| CC[C@H](C)[C@H](NC(=O)[C@H](Cc1ccccc1)NC(=O)[C@H](C)NC(=O)C(C)(C)NC(=O)[C@H](CCC(N)=O)NC(=O)[C@H](C)NC(=O)[C@H](CCCCNC(=O)COCCOCCNC(=O)CC[C@H](NC(=O)CCCCCCCCCCCCCCCCCCC(=O)O)C(=O)O)NC(=O)[C@H](CCCCN)NC(=O)[C@H](CC(=O)O)NC(=O)[C@H](CC(C)C)NC(=O)C(C)(CC(C)C)NC(=O)[C@@H](NC(=O)[C@H](CO)NC(=O)[C@H](Cc1ccc(O)cc1)NC(=O)[C@H](CC(=O)O)NC(=O)[C@H](CO)NC(=O)[C@@H](NC(=O)C(C)(Cc1ccccc1)NC(=O)[C@@H](NC(=O)CNC(=O)[C@H](CCC(N)=O)NC(=O)C(C)(C)NC(=O)[C@@H](N)Cc1ccc(O)cc1)[C@@H](C)O)[C@@H](C)O)[C@@H](C)CC)C(=O)N[C@@H](CCC(=O)O)C(=O)N[C@@H](Cc1ccc(O)cc1)C(=O)N[C@@H](CC(C)C)C(=O)N[C@@H](CC(C)C)C(=O)N[C@@H](CCC(=O)O)C(=O)NCCCCC(=O)N1CCC[C@H]1C(=O)N[C@@H](CO)C(=O)N[C@@H](CO)C(=O)NCC(=O)N[C@@H](C)C(=O)N1CCC[C@H]1C(=O)N1CCC[C@H]1C(=O)N1CCC[C@H]1C(=O)N[C@@H](CO)C(N)=O (stereo partly drawn) [Compound 1] | 0.045 | 0.0244 | 0.271 |
| CC[C@H](C)[C@H](NC(=O)[C@H](Cc1ccccc1)NC(=O)[C@H](C)NC(=O)C(C)(C)NC(=O)[C@H](CCC(N)=O)NC(=O)[C@H](C)NC(=O)[C@H](CCCCNC(=O)COCCOCCNC(=O)CC[C@H](NC(=O)CCCCCCCCCCCCCCCCCCC(=O)O)C(=O)O)NC(=O)[C@H](CCCCN)NC(=O)[C@H](CC(=O)O)NC(=O)[C@H](CC(C)C)NC(=O)C(C)(CC(C)C)NC(=O)[C@@H](NC(=O)[C@H](CO)NC(=O)[C@H](Cc1ccc(O)cc1)NC(=O)[C@H](CC(=O)O)NC(=O)[C@H](CO)NC(=O)[C@@H](NC(=O)C(C)(Cc1ccccc1F)NC(=O)[C@@H](NC(=O)CNC(=O)[C@H](CCC(N)=O)NC(=O)C(C)(C)NC(=O)[C@@H](N)Cc1ccc(O)cc1)[C@@H](C)O)[C@@H](C)O)[C@@H](C)CC)C(=O)N[C@@H](CCC(=O)O)C(=O)N[C@@H](Cc1ccc(O)cc1)C(=O)N[C@@H](CC(C)C)C(=O)N[C@@H](CC(C)C)C(=O)N[C@@H](CCC(=O)O)C(=O)NCCCCC(=O)N1CCC[C@H]1C(=O)N[C@@H](CO)C(=O)N[C@@H](CO)C(=O)NCC(=O)N[C@@H](C)C(=O)N1CCC[C@H]1C(=O)N1CCC[C@H]1C(=O)N1CCC[C@H]1C(=O)N[C@@H](CO)C(N)=O (stereo partly drawn) [Compound 5] | 0.0434 | 0.0236 | 0.159 |
| CC[C@H](C)[C@H](NC(=O)[C@H](Cc1ccccc1)NC(=O)[C@H](C)NC(=O)C(C)(C)NC(=O)[C@H](CCC(N)=O)NC(=O)[C@H](C)NC(=O)[C@H](CCCCNC(=O)COCCOCCNC(=O)CCCCC[C@H](NC(=O)CCCCCCCCCCCCCCCCCCC(=O)O)C(=O)O)NC(=O)[C@H](CCCCN)NC(=O)[C@H](CC(=O)O)NC(=O)[C@H](CC(C)C)NC(=O)C(C)(CC(C)C)NC(=O)[C@@H](NC(=O)[C@H](CO)NC(=O)[C@H](Cc1ccc(O)cc1)NC(=O)[C@H](CC(=O)O)NC(=O)[C@H](CO)NC(=O)[C@@H](NC(=O)C(C)(Cc1ccccc1F)NC(=O)[C@@H](NC(=O)CNC(=O)[C@H](CCC(N)=O)NC(=O)C(C)(C)NC(=O)[C@@H](N)Cc1ccc(O)cc1)[C@@H](C)O)[C@@H](C)O)[C@@H](C)CC)C(=O)N[C@@H](CCC(=O)O)C(=O)N[C@@H](Cc1ccc(O)cc1)C(=O)N[C@@H](CC(C)C)C(=O)N[C@@H](CC(C)C)C(=O)N[C@@H](CCC(=O)O)C(=O)NCCCCC(=O)N1CCC[C@H]1C(=O)N[C@@H](CO)C(=O)N[C@@H](CO)C(=O)NCC(=O)N[C@@H](C)C(=O)N1CCC[C@H]1C(=O)N1CCC[C@H]1C(=O)N1CCC[C@H]1C(=O)N[C@@H](CO)C(N)=O (stereo partly drawn) [Compound 8] | 0.0524 | 0.0329 | 0.179 |
